Laboratory results published in patent US8138220B2, “[2-(6-fluoro-1H-indol-3-ylsulfanyl)benzyl]methyl amine for the treatment of affective disorders” (H. Lundbeck A/S, priority 2006, dated 2012).

What was measured:
Male Wistar rats = assay: Antimanic effect, amphetamine and chlordiazepoxide induced locomotor activity in rats; assay type: in vivo, rat; conditions: for induced locomotor activity: amphetamine 1.2 mg/kg + chlordiazepoxide 10.0 mg/kg; for baseline activity: tested doses
Procedure: Increased locomotor activity induced by an appropriate combination of amphetamine and chlordiazepoxide is a proposed animal model of mania. The induced locomotor activity can be reversed by Lithium.
(§1) In all experiments, animals were maintained on a 12:12 light-dark cycle with lights on at 06:00 h. Food and water was available ad libitum. Animals were taken to the experimental laboratory in the afternoon the day before the experiment was conducted. All drug doses are listed as mg salt pr. kg. Blood-samples were collected within 30 minutes after the testing was finalised.
Animals: Male Wistar rats weighing 160-175 g were supplied from Harlan, the Netherlands. The animals were housed 4 pr. cage in makrolon cages (20×35 cm) with one plastic house for enrichment. The rats had 5 days adaptation to the animal facility prior to the initiation of the experiment.
Equipment: Makrolon cages (20×35 cm) placed in a U-frame equipped longitudinally with 4 infrared light sources and photocells were used to record the locomotor activity of the animals. The light beams cross the cage 4 cm above the bottom of the cage. Recording of a motility count required interruption of adjacent light beams, thus avoiding counts induced by stationary movements of the rat. A thin layer of standard bedding material coved the bottom of the cage.
Chlordiazepoxide (10.0 mg/kg) was dissolved in 10% hydroxypropyl-beta-cyclodextrin and injected s.c. (5 ml/kg) immediately after the amphetamine injection.

Male NMRI mice = assay: Antimanic effects, sensitized amphetamine response in mice; assay type: in vivo, mouse; conditions: for induced locomotor activity: amphetamine-sensitised mice, amphetamine challenge 1.25 mg/kg; for baseline activity: tested doses, each alone
Procedure: as §1
Repeated intermittent administration of amphetamine causes development of a sensitised response to a subsequent amphetamine challenge. This phenomenon has been proposed to model the chronic and progressive nature of bipolar disorder.
Animals: Male NMRI mice weighing 19-21 g were supplied from Harlan, the Netherland's. The animals were housed 4 pr. cage in makrolon cages (20×35 cm) with two plastic houses and nesting material for enrichment. The animals had 5 days adaptation to the animal-facility prior to the initiation the experiment.
Equipment: Makrolon cages (20×35 cm) placed in quadrates equipped with 5×8 infrared light sources and photocells spaced by 4 cm were used to record the locomotor activity of the animals. The light beams cross the cage 1.8 cm above the bottom of the cage. Recording of a motility count required interruption of adjacent light beams, thus avoiding counts induced by stationary movements of the mice.
Experimental set-up: The animals were pre-treated with either amphetamine sulphate 2.50 mg/kg (10 ml/kg s.c.) or vehicle for 5 consecutive days. After 11+/−1 days withdrawal period the animals were injected with test-drug or vehicle injection. Lithium chloride was dissolved in distilled water and injected s.c. (6 ml/kg) in dose of 40 mg/kg (0.94 mEq/kg), 30 minutes before testing. Test compound ([2-(6-fluoro-1H-indol-3-ylsulfanyl)benzyl]methyl amine L-(+)-hydrogen tatrate) was dissolved in 10% hydroxypropyl-beta-cyclodextrin and injected s.c. in doses of 0.08 and 0.4 mg/kg 60 minutes before testing. Owing to Test compound's lower affinity to rodent 5HT2A receptor with respect to the human receptor, the tested doses of Test compound was combined with a dose of MDL 100907 ([R-(+)-a-(2,3-dimethoxyphenyl)-1-[2-(4-fluorophenylethyl)]-4-piperidinem ethanol]) that achieves full occupancy of this receptor. 30 minutes before testing the animals were placed in the activity boxes for habituation. After the habituation period the mice were injected with a low dose amphetamine challenge (1.25 mg/kg or saline, 10 ml/kg) and the locomotor activity were measured for 60 minutes. The mice were dosed after the average weight of 16 animals.

Male BALB/cByJ mice = assay: Mouse marble burying; assay type: in vivo; conditions: mice, 0.625, 1.25 and 5 mg/kg s.c., 30 min before 30-minute test
Procedure: (§2) In all experiments, animals were maintained on a 12:12 light-dark cycle with lights on at 0600 h. Food and water were available ad libitum
For rodents, burying functions as a defensive behavior, used to lessen the intensity of a threat or the animal's vulnerability to it. Researchers have investigated defensive burying behaviour using a variety of threatening objects such as electrified prods and unpleasant tasting foods and liquids. Benign objects such as marbles and food pellets also elicit burying behaviour. Mice probably bury harmless objects because they are novel, and are therefore perceived as threatening. Acute administration of both anxiolytic and antidepressant drugs reduce the number of marbles buried in this paradigm.
Male BALB/cByJ mice (22-28 g) were housed 5/cage. Two experiments were performed. Mice received vehicle or 0.625, 1.25, or 5 mg/kg (s.c.) Test compound (see example 12). 30 minutes after injection, animals were placed individually in cages containing 20 marbles (2 rows of 10) on top of 1.5 inches of Aspen bedding. After a 30-minute test period, mice were returned to their home cages, and the number of visible marbles (less than ⅔ covered with bedding) were counted and subtracted from 20 to give number of marbles buried.

Solubility in water = assay type: physicochemical; conditions: well-defined 1:1 salts, in words
Male C57B1/6 mice = assay: Stress-induced hyperthermia; assay type: in vivo, mouse; conditions: chlordiazepoxide 10 mg/kg, one hour before
Procedure: as §2
The stress-induced hyperthermia (SIH) test is based upon the principle that, like other mammals, mice have a natural hyperthermic response to stress. In this paradigm, the stressor is having the rectal temperature taken. This physiological response is considered to reflect the anxiety level of the animal, and is attenuated by pretreatment with anxiolytic drugs such as benzodiazepines.
Male C57B1/6 mice (18-21 g) were housed 5/cage until 1 day before the experiment, at which time they were brought to the testing room and singly-housed. Testing was conducted over a two-day period from 9-12 am. Mice received vehicle, chlordiazepoxide (10 mg/kg), or 0.02, 0.08, or 0.32 mg/kg Test compound (s.c.). One hour later, core temperature was measured with a rectal probe (T1) and each animal was returned to its cage. Ten minutes later, a second reading was obtained (T2). The difference between the two readings (T2−T1) was calculated as the measure of stress-induced hyperthermia.

SMILES: COc1cccc([C@H](O)C2CCN(CCc3ccc(F)cc3)CC2)c1OC [MDL 100907, [R-(+)-a-(2,3-dimethoxyphenyl)-1-[2-(4-fluorophenylethyl)]-4-piperidinemethanol], reference compound]
- induced locomotor activity (Male Wistar rats; MDL 100907 0.3 mg/kg): significantly reversed
- baseline activity (Male Wistar rats): no effect
- induced locomotor activity (Male NMRI mice; MDL 100907 0.3 mg/kg): significantly decreased
- baseline activity (Male NMRI mice; mice): no significant effect

SMILES: CNCc1ccccc1Sc1c[nH]c2cc(F)ccc12.O=C(O)C(O)C(O)C(=O)O [Test compound, [2-(6-fluoro-1H-indol-3-ylsulfanyl)benzyl]methyl amine L-(+)-hydrogen tatrate]
- induced locomotor activity (Male Wistar rats; Test compound 0.4 mg/kg combined with MDL 100907 0.3 mg/kg): significant attenuation
- induced locomotor activity (Male Wistar rats; Test compound 0.4 mg/kg s.c. alone): tendency to increase the locomotor activity induced activity, but not significantly
- baseline activity (Male Wistar rats): no effect
- numbers of marbles buried (Male BALB/cByJ mice): significantly and equivalently reduced
- induced locomotor activity (Male NMRI mice; Test compound 0.08 mg/kg and 0.4 mg/kg s.c. alone): no effect
- baseline activity in saline pre-treated animals (Male NMRI mice; mice, Test compound 0.08 and 0.4 mg/kg combined with MDL 100907 0.3 mg/kg): significantly lowered
- baseline activity (Male NMRI mice; mice): no significant effect

SMILES: CNCc1ccccc1Sc1c[nH]c2cc(F)ccc12.O=C(O)C(O)C(O)C(=O)O [beta form of the L(+) hydrogen tartrate salt] [[2-(6-Fluoro-1H-indol-3-ylsulfanyl)-benzyl]-methyl-amine L-(+)-hydrogen tartrate]
- water absorbed when exposed to high relative humidity: about 0.6%

SMILES: CC(C)(O)C(=O)O [2-hydroxy isobutyric acid]
- solubility (Solubility in water): relatively high solubility

SMILES: CNCc1ccccc1Sc1c[nH]c2cc(F)ccc12.O=C(O)C(O)C(O)C(=O)O [alpha form of the L(+) hydrogen tartrate salt] [[2-(6-Fluoro-1H-indol-3-ylsulfanyl)-benzyl]-methyl-amine L-(+)-hydrogen tartrate]
- water absorbed when exposed to high relative humidity: < 0.1%

SMILES: CNC1=Nc2ccc(Cl)cc2C(c2ccccc2)=[N+]([O-])C1 [CDP, chlordiazepoxide, reference compound]
- stress-induced hyperthermia (T2−T1) (Male C57B1/6 mice): significantly reduced
